Assay results taken from ChEMBL document CHEMBL6078645, “Expanding the Solvent/Protein Region Occupation of the Non-Nucleoside Reverse Transcriptase Inhibitor Binding Pocket for Improved Broad-Spectrum Anti-HIV-1 Efficacy: from Rigid Phenyl-Diarylpyrimidines to Flexible Hydrophilic Piperidine-Diarylpyrimidines” (J Med Chem, 2024).
Values after ≈ are worked out from the molar mass of the structure shown. Values joined by “and” are separate entries in the source; they are usually repeats but may differ in a detail not shown here. Identical values can stand only once.

Columns and labels:
[1] = tested on: Human immunodeficiency virus 1; assay: Antiviral activity against wild type HIV-1 IIIB infected in human MT4 cells assessed as protection against virus-induced cytopathic effect incubated for 5 days by MTT assay; format: functional, organism-based
[2] = tested on: Human immunodeficiency virus 1; assay: Antiviral activity against HIV-1 harboring Y188L mutant infected in human MT4 cells assessed as protection against virus-induced cytopathic effect incubated for 5 days by MTT assay; format: functional, organism-based
[3] = tested on: Human immunodeficiency virus 1; assay: Antiviral activity against HIV-1 harboring F227L/V106A double mutant infected in human MT4 cells assessed as protection against virus-induced cytopathic effect incubated for 5 days by MTT assay; format: functional, organism-based
[4] = tested on: Human immunodeficiency virus 1; assay: Antiviral activity against HIV-1 harboring RES056 mutant infected in human MT4 cells assessed as protection against virus-induced cytopathic effect incubated for 5 days by MTT assay; format: functional, organism-based
[5] = (§1) Cytotoxicity against human MT4 cells assessed as reduction in cell viability incubated for 5 days by MTT assay; format: toxicity, cell-based; details: MT4 cells, time 5 day
[6] = Selectivity index, ratio of CC50 for cytotoxicity against human MT4 cells assessed as reduction in cell viability to EC50 for antiviral activity against wild type HIV-1 IIIB infected in human MT4 cells assessed as protection against virus-induced cytopathic effect; format: toxicity, cell-based; details: for selectivity ratio: MT4 cells, read-out: Ratio CC50/EC50
[7] = target: T1, Human immunodeficiency virus type 1 reverse transcriptase (Human immunodeficiency virus 1, UniProt Q72547); assay: Inhibition of wildtype recombinant HIV-1 Reverse transcriptase incubated for 40 mins by spectrofluorometric analysis
[8] = target: T1, Human immunodeficiency virus type 1 reverse transcriptase; assay: Inhibition of HIV-1 reverse transcriptase
[9] = tested on: Human immunodeficiency virus 1; assay: Antiviral activity against HIV-1 harboring L100I mutant infected in human MT4 cells assessed as protection against virus-induced cytopathic effect incubated for 5 days by MTT assay; format: functional, organism-based; details: Human immunodeficiency virus 1, MT4, 120 h
[10] = tested on: Human immunodeficiency virus 1; assay: Antiviral activity against HIV-1 harboring K103N mutant infected in human MT4 cells assessed as protection against virus-induced cytopathic effect incubated for 5 days by MTT assay; format: functional, organism-based; details: Human immunodeficiency virus 1, MT4, 120 h
[11] = tested on: Human immunodeficiency virus 1; assay: Antiviral activity against HIV-1 harboring Y181C mutant infected in human MT4 cells assessed as protection against virus-induced cytopathic effect incubated for 5 days by MTT assay; format: functional, organism-based; details: Human immunodeficiency virus 1, MT4, 120 h
[12] = tested on: Human immunodeficiency virus 1; assay: Antiviral activity against HIV-1 harboring E138K mutant infected in human MT4 cells assessed as protection against virus-induced cytopathic effect incubated for 5 days by MTT assay; format: functional, organism-based; details: Human immunodeficiency virus 1, MT4, 120 h
CYP1A2 = target: T2, CYP1A2 (Homo sapiens, UniProt P05177); assay: Inhibition of CYP1A2 in human liver microsome preincubated with compound for 10 minutes followed NADPH addition and measured after 15 mins by LC-MS/MS analysis; format: ADME, microsomes; details: human, human liver microsomes
T2 sequence (P05177 whole entry): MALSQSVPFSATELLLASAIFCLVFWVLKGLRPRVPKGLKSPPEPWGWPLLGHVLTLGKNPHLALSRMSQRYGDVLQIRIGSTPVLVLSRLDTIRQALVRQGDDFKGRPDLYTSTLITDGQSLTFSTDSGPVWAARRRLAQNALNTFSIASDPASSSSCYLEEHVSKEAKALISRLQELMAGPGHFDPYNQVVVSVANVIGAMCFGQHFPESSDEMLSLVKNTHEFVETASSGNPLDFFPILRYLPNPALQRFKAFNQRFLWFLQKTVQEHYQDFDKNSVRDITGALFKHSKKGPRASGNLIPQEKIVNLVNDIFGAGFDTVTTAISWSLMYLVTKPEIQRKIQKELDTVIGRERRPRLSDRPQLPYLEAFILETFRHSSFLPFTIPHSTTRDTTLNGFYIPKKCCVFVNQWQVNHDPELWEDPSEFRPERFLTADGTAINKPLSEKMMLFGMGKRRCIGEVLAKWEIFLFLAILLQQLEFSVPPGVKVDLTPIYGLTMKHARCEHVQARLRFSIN

Cytochrome P450 2C19 = Cytochrome P450 2C19 (Homo sapiens, UniProt P33261); assay: Inhibition of CYP2C19 in human liver microsome preincubated with compound for 10 minutes followed NADPH addition and measured after 15 mins by LC-MS/MS analysis; format: ADME, microsomes
Cytochrome P450 2C19, sequence (P33261 whole entry): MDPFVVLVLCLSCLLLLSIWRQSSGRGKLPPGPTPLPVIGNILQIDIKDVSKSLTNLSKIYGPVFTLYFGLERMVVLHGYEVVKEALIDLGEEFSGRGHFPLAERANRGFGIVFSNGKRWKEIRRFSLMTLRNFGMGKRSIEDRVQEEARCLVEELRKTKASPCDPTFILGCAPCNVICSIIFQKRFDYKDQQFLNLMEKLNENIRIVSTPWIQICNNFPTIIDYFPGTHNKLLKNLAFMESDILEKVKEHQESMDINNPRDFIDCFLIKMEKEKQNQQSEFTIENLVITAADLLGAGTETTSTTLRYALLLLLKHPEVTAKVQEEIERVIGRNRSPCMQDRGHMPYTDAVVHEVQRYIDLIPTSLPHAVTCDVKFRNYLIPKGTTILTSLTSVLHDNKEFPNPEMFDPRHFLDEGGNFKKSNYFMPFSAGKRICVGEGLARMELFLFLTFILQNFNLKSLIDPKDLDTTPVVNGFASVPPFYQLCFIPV

CYP2C9 = CYP2C9 (Homo sapiens, UniProt P11712); assay: Inhibition of CYP2C9 in human liver microsome preincubated with compound for 10 minutes followed NADPH addition and measured after 15 mins by LC-MS/MS analysis; format: ADME, microsomes; details: human, human liver microsomes
CYP2C9, sequence (P11712 whole entry): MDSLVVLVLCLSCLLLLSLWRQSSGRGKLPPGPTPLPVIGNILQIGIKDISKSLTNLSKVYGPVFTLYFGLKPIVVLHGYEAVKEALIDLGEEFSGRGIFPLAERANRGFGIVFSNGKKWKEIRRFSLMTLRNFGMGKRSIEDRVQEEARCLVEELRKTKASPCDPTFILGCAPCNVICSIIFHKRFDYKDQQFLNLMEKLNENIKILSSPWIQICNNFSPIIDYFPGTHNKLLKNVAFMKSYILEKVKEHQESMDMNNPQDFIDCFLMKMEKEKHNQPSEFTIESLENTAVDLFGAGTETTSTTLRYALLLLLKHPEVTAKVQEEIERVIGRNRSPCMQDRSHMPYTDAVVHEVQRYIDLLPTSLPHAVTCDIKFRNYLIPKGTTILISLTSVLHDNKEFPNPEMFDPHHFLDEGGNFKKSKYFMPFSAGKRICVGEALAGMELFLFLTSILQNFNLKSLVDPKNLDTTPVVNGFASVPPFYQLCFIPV

CYP2D6 = CYP2D6 (Homo sapiens, UniProt P10635); assay: Inhibition of CYP2D6 in human liver microsome preincubated with compound for 10 minutes followed NADPH addition and measured after 15 mins by LC-MS/MS analysis; format: ADME, microsomes; details: human, human liver microsomes
CYP2D6, sequence (P10635 whole entry): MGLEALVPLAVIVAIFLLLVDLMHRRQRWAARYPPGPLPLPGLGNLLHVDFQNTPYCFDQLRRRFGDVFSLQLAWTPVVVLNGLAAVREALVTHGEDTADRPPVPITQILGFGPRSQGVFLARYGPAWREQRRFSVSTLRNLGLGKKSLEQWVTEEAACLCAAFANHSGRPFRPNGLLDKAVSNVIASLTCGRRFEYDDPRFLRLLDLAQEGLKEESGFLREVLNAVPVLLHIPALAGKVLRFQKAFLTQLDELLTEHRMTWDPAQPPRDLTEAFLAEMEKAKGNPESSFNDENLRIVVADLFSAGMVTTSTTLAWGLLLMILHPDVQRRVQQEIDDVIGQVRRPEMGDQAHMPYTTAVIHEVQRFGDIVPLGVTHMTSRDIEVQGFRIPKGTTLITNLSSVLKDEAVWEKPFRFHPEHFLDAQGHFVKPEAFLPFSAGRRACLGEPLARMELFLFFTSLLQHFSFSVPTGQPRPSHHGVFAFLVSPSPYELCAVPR

CYP3A4 [13] = target: T3, CYP3A4 (Homo sapiens, UniProt P08684); assay: Inhibition of CYP3A4 in human liver microsome using midazolam as substrate preincubated with compound for 10 minutes followed NADPH addition and measured after 15 mins by LC-MS/MS analysis; format: ADME, microsomes; details: human, human liver microsomes, probe midazolam
T3 sequence (P08684 whole entry): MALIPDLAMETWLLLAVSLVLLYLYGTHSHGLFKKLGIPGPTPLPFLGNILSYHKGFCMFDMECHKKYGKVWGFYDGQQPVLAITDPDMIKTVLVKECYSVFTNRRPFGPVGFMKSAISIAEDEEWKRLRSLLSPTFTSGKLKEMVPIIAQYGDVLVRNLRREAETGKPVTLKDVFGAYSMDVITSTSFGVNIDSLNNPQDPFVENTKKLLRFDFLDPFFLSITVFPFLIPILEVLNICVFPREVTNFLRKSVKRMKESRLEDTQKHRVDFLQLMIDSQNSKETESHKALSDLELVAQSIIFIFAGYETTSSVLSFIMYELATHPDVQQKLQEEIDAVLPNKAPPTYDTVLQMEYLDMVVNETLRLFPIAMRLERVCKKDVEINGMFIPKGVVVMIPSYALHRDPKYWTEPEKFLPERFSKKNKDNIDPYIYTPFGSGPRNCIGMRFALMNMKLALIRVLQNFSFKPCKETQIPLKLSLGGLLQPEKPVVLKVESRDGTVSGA

CYP3A4 [14] = target: T3, CYP3A4; assay: Inhibition of CYP3A4 in human liver microsome using testosterone as substrate preincubated with compound for 10 minutes followed NADPH addition and measured after 15 mins by LC-MS/MS analysis; format: ADME, microsomes; details: human, human liver microsomes, probe testosterone
MT4 = assay: as §1; format: toxicity, cell-based; details: mt4, 120 h, 120 h, time 5 day
[15] = Solubility of compound in phosphate buffer at pH 2 incubated for 24 hrs by HPLC analysis; format: physicochemical
[16] = Solubility of compound in phosphate buffer at pH 7 incubated for 24 hrs by HPLC analysis; format: physicochemical
[17] = Solubility of compound in phosphate buffer at pH 7.4 incubated for 24 hrs by HPLC analysis; format: physicochemical
[18] = Solubility of compound incubated for 24 hrs by HPLC analysis; format: physicochemical
[19] = Human immunodeficiency virus 1, IIIB, MT4, 120 h
[20] = Human immunodeficiency virus 1, MT4, 120 h

| Compound | EC50 [1, 19] [nM] | EC50 [2, 20] [nM] | EC50 [3, 20] [nM] | EC50 [4, 20] [nM] | CC50 at 120 h [5] [nM] | selectivity ratio [6] | IC50 [7] [nM] | EC50 [9] [nM] | EC50 [10] [nM] | EC50 [11] [nM] | EC50 [12] [nM] | also measured |
| --- | --- | --- | --- | --- | --- | --- | --- | --- | --- | --- | --- | --- |
| Cc1cc(-c2ccncc2)cc(C)c1Oc1nc(NC2CCN(Cc3ccc(S(N)(=O)=O)cc3)CC2)ncc1CO | 29 | 177 | 65 | 329 | > 218000 | > 7620 | 192000 | – | – | – | – | – |
| Cc1cc(-c2ccc(C#N)cc2)cc(C)c1Oc1nc(NC2CCN(Cc3ccc(C#N)cc3)CC2)ncc1CO | – | 59 | 71 | 294 | 4830 | 684 | 297 | 9 | 6 | 22 | 21 | EC50 [8]: 7 nM |
| N#Cc1ccc(Nc2ncc(CO)c(Oc3c(F)cc(-c4ccc(C#N)cc4)cc3F)n2)cc1 | – | 161 | 1100 | 969 | 226000 | 256000 | – | 8 | 2 | 15 | 4 | EC50 [8]: 1 nM; IC50 at 15 min (CYP1A2): > 25000 nM; IC50 (Cytochrome P450 2C19): 14000 nM; IC50 at 15 min (CYP2C9): > 25000 nM; IC50 at 15 min (CYP2D6): > 25000 nM; IC50 at 15 min (CYP3A4 [13]): > 25000 nM; IC50 at 15 min (CYP3A4 [14]): > 25000 nM |
| Cc1cc(-c2ccncc2)cc(C)c1Oc1nc(NC2CCN(Cc3ccc(S(=O)(=O)NCCO)cc3)CC2)ncc1CO | 28 | 466 | 285 | – | – | 5080 | 186 | – | – | – | – | EC50 ([1]; mt4): 36 nM; EC50 ([2]; mt4): 919 nM; EC50 ([3]; mt4): 403 nM; EC50 ([4]; mt4): 1230 nM and 2660 nM; CC50 (MT4): > 210000 nM; Ratio CC50/EC50 ([6]; mt4): > 5837 |
| Cc1cc(-c2ccncc2)cc(C)c1Oc1nc(NC2CCN(Cc3ccc(C(=O)NCCO)cc3)CC2)ncc1CO | 39 | 2010 | 2830 | 5680 | > 215000 | > 5500 | 222 | – | – | – | – | – |
| Cc1cc(-c2ccc(C#N)cc2)cc(C)c1Oc1nc(NC2CCN(Cc3ccc(S(N)(=O)=O)cc3)CC2)ncc1CO.Cl | – | – | – | – | – | – | – | – | – | – | – | solubility at 24 h [15]: > 56400 µg/mL; solubility at 24 h [16]: < 1 µg/mL; solubility at 24 h [17]: < 1 µg/mL; solubility at 24 h [18]: 5270 µg/mL |
| COCCNC(=O)c1ccc(CN2CCC(Nc3ncc(CO)c(Oc4c(C)cc(-c5ccncc5)cc4C)n3)CC2)cc1 | 10 | 46 | 64 | 58 | 110000 | 11200 | – | 11 | 5 | 34 | 50 | – |
| Cc1cc(-c2ccncc2)cc(C)c1Oc1nc(NC2CCN(Cc3ccc(C(N)=O)cc3)CC2)ncc1CO | 9 | 210 | 229 | 1470 | > 232000 | > 24800 | 183 | – | – | – | – | – |
| COCCNS(=O)(=O)c1ccc(CN2CCC(Nc3ncc(CO)c(Oc4c(C)cc(-c5ccncc5)cc4C)n3)CC2)cc1 | 9 | 48 | 122 | 157 | 45900 | 5130 | – | 9 | 7 | 39 | 48 | – |
| CNC(=O)c1ccc(CN2CCC(Nc3ncc(CO)c(Oc4c(C)cc(-c5ccncc5)cc4C)n3)CC2)cc1 | 11 | 122 | 133 | 925 | > 226000 | > 20200 | 253 | – | – | – | – | – |
| Cc1cc(-c2ccncc2)cc(C)c1Oc1nc(NC2CCN(Cc3cccc(C(N)=O)c3)CC2)ncc1CO | 10 | 101 | 98 | 883 | > 232000 | > 23800 | 188 | – | – | – | – | – |
| Cc1cc(-c2ccc(C#N)cc2)cc(C)c1Oc1nc(NC2CCN(Cc3ccc(S(=O)(=O)N4CCC(O)CC4)cc3)CC2)ncc1CO | – | – | 54 | 169 | – | – | 595 | 22 | 9 | 39 | 38 | EC50 [8]: 8 nM and 9 nM; EC50 ([2]; mt4): 125 nM and 56 nM; EC50 ([3]; mt4): 51 nM; EC50 ([4]; mt4): 307 nM; CC50 (MT4): 3250 nM and 18400 nM |
| COCCNC(=O)c1ccc(CN2CCC(Nc3ncc(CO)c(Oc4c(C)cc(-c5ccc(C#N)cc5)cc4C)n3)CC2)cc1 | – | 49 | 42 | 44 | 17600 | 1860 | 509 | 6 | 7 | 23 | 19 | EC50 [8]: 9 nM |
| Cc1cc(-c2ccncc2)cc(C)c1Oc1nc(NC2CCN(Cc3ccc(S(=O)(=O)N4CCC(O)CC4)cc3)CC2)ncc1CO | 24 | 226 | 43 | 446 | 17600 | 750 | – | – | – | – | – | – |
| Cc1cc(-c2ccc(C#N)cc2)cc(C)c1Oc1nc(NC2CCN(Cc3ccc(CO)cc3)CC2)ncc1CO | 9 | 56 | 51 | 307 | 18400 | 1980 | – | – | – | – | – | – |
| Cc1cc(-c2ccc(C#N)cc2)cc(C)c1Oc1nc(NC2CCN(Cc3cccc(C#N)c3)CC2)ncc1CO | – | 51 | 122 | 990 | 5810 | 711 | 261 | 12 | 16 | 18 | 55 | EC50 [8]: 8 nM |
| CNS(=O)(=O)c1ccc(CN2CCC(Nc3ncc(CO)c(Oc4c(C)cc(-c5ccncc5)cc4C)n3)CC2)cc1 | 14 | 100 | 234 | 405 | > 212000 | > 14800 | 198 | – | – | – | – | – |
| Cc1cc(C#N)cc(C)c1Oc1nc(Nc2ccc(C#N)cc2)nc(N)c1Br [ETRAVIRINE] | – | – | – | 37 | > 4610 | – | – | 6 | – | – | – | solubility at 24 h [15]: 127 µg/mL (≈ 292 µM); solubility at 24 h [16]: < 1 µg/mL; solubility at 24 h [17]: < 1 µg/mL; solubility at 24 h [18]: < 1 µg/mL |
